Experimental data reported in patent US4070401A, “Method for the preparation of a halogenated aromatic amine” (Mitsui Toatsu Chemicals Inc., priority 1972, dated 1978).

Experiment: Dissociation constant pKb of the amine additive (Table 1)
Type: physicochemical
Conditions: measured at 25° C
Source text: The inventors have conducted an extensive study on suppression or inhibition of halogenation reaction which would occur during preparation of a halogenated aromatic amine. As a result, the inventors discovered that when a halogenated aromatic nitro compound is hydrogenated in the presence of a predetermined amount of a platinum catalyst together with an amine selected from the group consisting of an alkylmonoamine, an alicyclic amine and a polyalkylenepolyamine, the dehalogenation may be suppressed to a minimum. The present invention has been completed on the basis of this discovery. The alkylmonoamine, alicyclic amine and polyalkylenepolyamine have common properties that they are an organic nitrogen-containing base having a dissociation constant pKb lower than 4.2. The dissociation constant herein described means that which is defined according to the dissociation equilibrium of the usual acid or base, i.e., when an organic nitrogen-containing base is expressed by RN, the dissociation equilibrium of RN is expressed by a formula
RN + H2 O .revreaction. RNH^+ + OH^-
and the dissociation constant is defined as follows [formula] where [ ]means activity.
Though the dissociation constant pKb is generally more or less varied with temperature, the pKb value is measured at 25° C herein.

SMILES	Dissociation Constant pKb
CC(C)N [isopropylamine]	3.4
CN [methylamine]	3.4
